Measurements from patent publication US20180042874A1, “METHOD FOR TREATING OSTEOPOROSIS” (China Medical University, priority 2016, published 2018).

Legend:
[1] = system: osteoclast differentiation induced by receptor activator of nuclear factor κB ligand in RAW 264.7 cells; assay: Osteoclast differentiation test (tartrate-resistant acid phosphatase staining); format: cell-based, mouse
Description: The present invention used monocyte/macrophage cell line RAW 264.7 from mouse as an experimental model of the osteoclast differentiation system. RAW 264.7 cells differentiated into osteoclasts in an environment containing receptor activator of nuclear factor κB ligand. RAW 264.7 was obtained from a tumor induced by Abelson murine leukemia virus and purchased from the American Type Culture Collection (ATCC; Rockville, Md.). To culture osteoclasts, RAW 264.7 cells were used, cultured in a 24-well plate, the number of cells in each well was 1×10^4 cell/ml and cultured in a medium containing 100 ng/ml of receptor activator of nuclear factor κB ligand or co-treated with different concentrations of the compound of formula I.
In order to simulate physiological functions of the bone, we simulated the in vivo environment and some hormones essential to differentiation were added. The hormone environment suitable for […] cells was simulated for osteoclast differentiation. […] Markers for osteoclast differentiation were evaluated by staining with tartrate-resistant acid phosphatase. […]
Osteoclast formation was detected by quantifying the staining positive rate of tartrate-resistant acid phosphatase (387-A, Sigma-Aldrich, St. Louis, Mo.). […]

ovariectomized rats = assay: Bone density in ovariectomized osteoporosis rat model; format: in vivo, Sprague-Dawley (SD) female rats
Method: Inducing osteoporosis animal models and experimental methods: • 1. 6-month old Sprague-Dawley (SD) female rats were purchased; • 2. These rats were divided into 7 groups, of which Group 1 was given pseudo-surgery, Group 2-7 underwent bilateral ovariectomies; • 3. On the 6th day after surgery, 1 mL/kg of vehicle alone was given orally to Group 1, Group 2 daily, Zoledronic Acid and Prolia were administered weekly by injections to Group 3, Group 4, respectively; 1, 3, 10 mg/kg of the compound of formula I was given orally every 3 days to Groups 5-7, respectively; • 4. Body weight and bone density were measured weekly, blood was drawn until the 118th day; • 5. Rats were then sacrificed to obtain kidneys, livers and rat tibia; • 6. Data were consolidated and processed.

hepatitis B virus (HBV) = details: human hepatocellular carcinoma cells; cited from earlier work
ERK = assay: Western blot of MAPK pathway, phosphorylated ERK; format: cell-based, mouse; details: 10 μg/ml co-treated with 100 ng/ml RANKL, 0-60 minutes
Method: The effect of the compound of formula I on the protein expression of osteoclast MAPKs pathways induced by receptor activator of nuclear factor κB ligand was studied, experiments were performed by using the Western blot method; RAW 264.7 cells were rinsed in ice-cold PBS, cell lysis buffer was added, the components of the buffer solution included: 10 mM 4-(2-hydroxyethyl)-1-piperazineethanesulfonic acid (HEPES), 1.5 mM MgCl2, 0.5 mM dithiothreitol (DTT), 0.5 μg/ml leupeptin and 6.4% Nonidet P-40, reacted on ice for 15 minutes. The cells were scraped off with a spatula, collected into a 1.5 ml centrifuge tube, the cells were thoroughly broken by using a shaker; centrifuged at 12,000 rpm, 4° C. for 10 minutes; supernatant was added into a new 1.5 ml centrifuge tube; boiled with IX sodiumdodecyl sulfate (SDS) sample buffer, followed by electrophoresis using 10 to 12% SDS-PAGE. […] The transfer membrane was rinsed again and the membrane loaded with chemical luminescence reagent ECL was allowed to react with a photosensitive sheet in a darkroom for a suitable period of time, the photosensitive sheet then reacted with the developer. After the photosensitive sheet was exposed to light a band-shaped antibody-binding proteins was observed, quantified by the density of the bands. […]

CNC(=O)N[C@]1(C)CCC[C@@]2(C)C3CC[C@@]4(C)C[C@]3(CCC21)CC4=O (single isomer, unassigned; ent-16) [compound of formula I, ent-16-oxobeyeran-19-N-methylureido]
osteoclast differentiation over time (TRAP-positive multinucleated cells) ([1]; 10 μg/ml co-treated with 100 ng/ml RANKL, 2, 4, 6 days): significant and inhibitory effect | level of osteoclast differentiation (TRAP-positive multinucleated cells) ([1]; 10 μg/ml co-treated with 100 ng/ml RANKL, 6 days): decrease in the level of osteoclast differentiation | effect on reduced tibial bone density caused by ovarian removal (ovariectomized rats; ovariectomized rats, 1, 3, 10 mg/kg PO once every 3 days, 19 weeks after ovarian removal): improve the reduced tibial bone density | increase of tibial bone density (ovariectomized rats; ovariectomized rats, PO once every 3 days, as compared to the experimental group): 10% | secretion of hepatitis B virus antigen (HBeAg) (hepatitis B virus (HBV)): effectively suppress | secretion of hepatitis B virus surface antigen (HBsAg) (hepatitis B virus (HBV)): effectively suppress | expression of phosphorylated ERK (ERK): decreased
